{"source": "paper PMC6364417", "about": "“Kinase inhibitor library screening identifies synergistic drug combinations effective in sensitive and resistant melanoma cells” (Journal of Experimental & Clinical Cancer Research : CR, 2019)", "experiment_in_all_cases": "Kinase inhibitor library screening, PrestoBlue cell viability, 1 or 10 μM, 72 h", "key": {"[1]": {"test_system": "IGR37-XP cells (Vemurafenib-resistant)", "details": "IGR37 XP", "description": "(§1) After 72 h of treatment, cell viability was assessed using the PrestoBlue Cell Viability Reagent (ThermoFisher Scientific). Measurements were performed with the CLARIOstar Monochromator microplate reader (BMG Labtech).\n(§2) Kinase inhibitor library screening. […] Each cell line was treated in its sensitive form (parental), and also as 2 resistant derivatives, which were made resistant to either Vemurafenib (XP) or Dabrafenib (GP). Drugs were added at 2 different concentrations, 1 and 10 μM, for 72 h and cell viability was assessed using the PrestoBlue Cell Viability assay. Results are depicted as % viability compared to untreated cells. Each cell line was analyzed at least in duplicate. […] (XLSX 95 kb)"}, "[2]": {"test_system": "A375-GP cells (Dabrafenib-resistant)", "details": "A375 GP", "description": "as §1, §2"}, "[3]": {"test_system": "A375-XP cells (Vemurafenib-resistant)", "details": "A375 XP", "description": "as §1, §2"}, "[4]": {"test_system": "501Mel-GP cells (Dabrafenib-resistant)", "details": "501Mel GP", "description": "as §1, §2"}, "IGR37 cells (parental)": {"test_system": "IGR37 cells (parental)", "details": "IGR37 Parental", "description": "as §1, §2"}, "[5]": {"test_system": "501Mel-XP cells (Vemurafenib-resistant)", "details": "501Mel XP", "description": "as §1, §2"}, "501Mel cells (parental)": {"test_system": "501Mel cells (parental)", "details": "501Mel Parental", "description": "as §1, §2"}, "[6]": {"test_system": "IGR37-GP cells (Dabrafenib-resistant)", "details": "IGR37 GP", "description": "as §1, §2"}, "A375 cells (parental)": {"test_system": "A375 cells (parental)", "details": "A375 Parental, 72 h", "description": "as §1, §2"}}, "data": [{"compound": "N#CC1(c2ccc(NC(=O)c3cccnc3NCc3ccncc3)cc2)CCCC1", "note": "[Apatinib (YN968D1)]", "values": [{"measurement": "cell viability (kinase inhibitor library screening)", "setting": "[1]; 1μΜ, in %", "value": 105.2}, {"measurement": "cell viability (kinase inhibitor library screening)", "setting": "[1]; 10μΜ, in %", "value": 86.2}, {"measurement": "cell viability (kinase inhibitor library screening)", "setting": "[2]; 1μΜ, in %", "value": 97.5}, {"measurement": "cell viability (kinase inhibitor library screening)", "setting": "[2]; 10μΜ, in %", "value": 98.6}, {"measurement": "cell viability (kinase inhibitor library screening)", "setting": "[3]; 1μΜ, in %", "value": 103.9}, {"measurement": "cell viability (kinase inhibitor library screening)", "setting": "[3]; 10μΜ, in %", "value": 105.3}, {"measurement": "cell viability (kinase inhibitor library screening)", "setting": "[4]; 1μΜ, in %", "value": 102.7}, {"measurement": "cell viability (kinase inhibitor library screening)", "setting": "[4]; 10μΜ, in %", "value": 98.0}, {"measurement": "cell viability (kinase inhibitor library screening)", "setting": "IGR37 cells (parental); 1μΜ, in %", "value": 103.0}, {"measurement": "cell viability (kinase inhibitor library screening)", "setting": "IGR37 cells (parental); 10μΜ, in %", "value": 105.2}, {"measurement": "cell viability (kinase inhibitor library screening)", "setting": "[5]; 1μΜ, in %", "value": 112.2}, {"measurement": "cell viability (kinase inhibitor library screening)", "setting": "[5]; 10μΜ, in %", "value": 105.3}, {"measurement": "cell viability (kinase inhibitor library screening)", "setting": "501Mel cells (parental); 1μΜ, in %", "value": 103.5}, {"measurement": "cell viability (kinase inhibitor library screening)", "setting": "501Mel cells (parental); 10μΜ, in %", "value": 103.9}, {"measurement": "cell viability (kinase inhibitor library screening)", "setting": "[6]; 1μΜ, in %", "value": 94.0}, {"measurement": "cell viability (kinase inhibitor library screening)", "setting": "[6]; 10μΜ, in %", "value": 95.0}]}, {"compound": "OCCn1cc(-c2cnc3nnn(Cc4ccc5ncccc5c4)c3n2)cn1", "note": "[PF-04217903]", "values": [{"measurement": "cell viability (kinase inhibitor library screening)", "setting": "[1]; 10μΜ, 72 h", "value": 67.3, "unit": "%"}, {"measurement": "cell viability (kinase inhibitor library screening)", "setting": "[3]; 1μΜ, 72 h", "value": 107.0, "unit": "%"}, {"measurement": "cell viability (kinase inhibitor library screening)", "setting": "[3]; 10μΜ, 72 h", "value": 110.9, "unit": "%"}, {"measurement": "cell viability (kinase inhibitor library screening)", "setting": "A375 cells (parental); 1μΜ", "value": 111.4, "unit": "%"}, {"measurement": "cell viability (kinase inhibitor library screening)", "setting": "[4]; 1μΜ, 72 h", "value": 89.0, "unit": "%"}, {"measurement": "cell viability (kinase inhibitor library screening)", "setting": "[4]; 10μΜ, 72 h", "value": 82.3, "unit": "%"}, {"measurement": "cell viability (kinase inhibitor library screening)", "setting": "IGR37 cells (parental); 1μΜ, 72 h", "value": 119.0, "unit": "%"}, {"measurement": "cell viability (kinase inhibitor library screening)", "setting": "IGR37 cells (parental); 10μΜ, 72 h", "value": 104.5, "unit": "%"}, {"measurement": "cell viability (kinase inhibitor library screening)", "setting": "[5]; 1μΜ, 72 h", "value": 68.7, "unit": "%"}, {"measurement": "cell viability (kinase inhibitor library screening)", "setting": "[5]; 10μΜ, 72 h", "value": 68.6, "unit": "%"}, {"measurement": "cell viability (kinase inhibitor library screening)", "setting": "501Mel cells (parental); 1μΜ, 72 h", "value": 97.4, "unit": "%"}, {"measurement": "cell viability (kinase inhibitor library screening)", "setting": "501Mel cells (parental); 10μΜ, 72 h", "value": 99.2, "unit": "%"}, {"measurement": "cell viability (kinase inhibitor library screening)", "setting": "[6]; 1μΜ, 72 h", "value": 105.7, "unit": "%"}, {"measurement": "cell viability (kinase inhibitor library screening)", "setting": "[6]; 10μΜ, 72 h", "value": 91.4, "unit": "%"}]}, {"compound": "CCn1c(N)c(C(=O)NC)c(=O)c2ccc(C#C[C@@](C)(O)COC)nc21", "note": "[SAR131675]", "values": [{"measurement": "cell viability (kinase inhibitor library screening)", "setting": "[1]; 1μΜ, in %", "value": 94.6}, {"measurement": "cell viability (kinase inhibitor library screening)", "setting": "[1]; 10μΜ, in %", "value": 71.4}, {"measurement": "cell viability (kinase inhibitor library screening)", "setting": "[2]; 1μΜ, in %", "value": 103.2}, {"measurement": "cell viability (kinase inhibitor library screening)", "setting": "[2]; 10μΜ, in %", "value": 87.6}, {"measurement": "cell viability (kinase inhibitor library screening)", "setting": "[3]; 1μΜ, in %", "value": 108.8}, {"measurement": "cell viability (kinase inhibitor library screening)", "setting": "[4]; 1μΜ, in %", "value": 103.5}, {"measurement": "cell viability (kinase inhibitor library screening)", "setting": "[4]; 10μΜ, in %", "value": 90.9}, {"measurement": "cell viability (kinase inhibitor library screening)", "setting": "IGR37 cells (parental); 1μΜ, in %", "value": 100.2}, {"measurement": "cell viability (kinase inhibitor library screening)", "setting": "IGR37 cells (parental); 10μΜ, in %", "value": 99.7}, {"measurement": "cell viability (kinase inhibitor library screening)", "setting": "[5]; 1μΜ, in %", "value": 103.7}, {"measurement": "cell viability (kinase inhibitor library screening)", "setting": "[5]; 10μΜ, in %", "value": 85.3}, {"measurement": "cell viability (kinase inhibitor library screening)", "setting": "501Mel cells (parental); 1μΜ, in %", "value": 96.4}, {"measurement": "cell viability (kinase inhibitor library screening)", "setting": "501Mel cells (parental); 10μΜ, in %", "value": 92.6}, {"measurement": "cell viability (kinase inhibitor library screening)", "setting": "[6]; 1μΜ, in %", "value": 93.4}, {"measurement": "cell viability (kinase inhibitor library screening)", "setting": "[6]; 10μΜ, in %", "value": 96.6}]}, {"compound": "Cn1cc(-c2ccc3nnc(Sc4ccc5ncccc5c4)n3n2)cn1", "note": "[SGX-523]", "values": [{"measurement": "cell viability (kinase inhibitor library screening)", "setting": "[1]; 1μΜ, 72 h", "value": 100.4, "unit": "%"}, {"measurement": "cell viability (kinase inhibitor library screening)", "setting": "[1]; 10μΜ, 72 h", "value": 74.3, "unit": "%"}, {"measurement": "cell viability (kinase inhibitor library screening)", "setting": "[2]; 1μΜ, 72 h", "value": 89.5, "unit": "%"}, {"measurement": "cell viability (kinase inhibitor library screening)", "setting": "[2]; 10μΜ, 72 h", "value": 94.8, "unit": "%"}, {"measurement": "cell viability (kinase inhibitor library screening)", "setting": "A375 cells (parental); 10μΜ", "value": 97.1, "unit": "%"}, {"measurement": "cell viability (kinase inhibitor library screening)", "setting": "A375 cells (parental); 1μΜ", "value": 104.5, "unit": "%"}, {"measurement": "cell viability (kinase inhibitor library screening)", "setting": "[4]; 1μΜ, 72 h", "value": 82.6, "unit": "%"}, {"measurement": "cell viability (kinase inhibitor library screening)", "setting": "[4]; 10μΜ, 72 h", "value": 64.3, "unit": "%"}, {"measurement": "cell viability (kinase inhibitor library screening)", "setting": "IGR37 cells (parental); 1μΜ, 72 h", "value": 107.3, "unit": "%"}, {"measurement": "cell viability (kinase inhibitor library screening)", "setting": "IGR37 cells (parental); 10μΜ, 72 h", "value": 94.5, "unit": "%"}, {"measurement": "cell viability (kinase inhibitor library screening)", "setting": "[5]; 1μΜ, 72 h", "value": 67.2, "unit": "%"}, {"measurement": "cell viability (kinase inhibitor library screening)", "setting": "[5]; 10μΜ, 72 h", "value": 58.8, "unit": "%"}, {"measurement": "cell viability (kinase inhibitor library screening)", "setting": "501Mel cells (parental); 1μΜ, 72 h", "value": 95.0, "unit": "%"}, {"measurement": "cell viability (kinase inhibitor library screening)", "setting": "501Mel cells (parental); 10μΜ, 72 h", "value": 89.4, "unit": "%"}, {"measurement": "cell viability (kinase inhibitor library screening)", "setting": "[6]; 1μΜ, 72 h", "value": 94.1, "unit": "%"}, {"measurement": "cell viability (kinase inhibitor library screening)", "setting": "[6]; 10μΜ, 72 h", "value": 90.7, "unit": "%"}]}, {"compound": "AZD4547", "values": [{"measurement": "cell viability, IGR37 XP, 1μΜ", "setting": "[1]; 1μΜ, 72 h", "value": 94.4}, {"measurement": "cell viability, IGR37 XP, 10μΜ", "setting": "[1]; 10μΜ, 72 h", "value": 6.4}, {"measurement": "cell viability, A375 XP, 1μΜ", "setting": "[3]; 1μΜ, 72 h", "value": 100.3}, {"measurement": "cell viability, A375 XP, 10μΜ", "setting": "[3]; 10μΜ, 72 h", "value": 49.7}, {"measurement": "cell viability, A375 Parental, 10μΜ", "setting": "A375 cells (parental); 10μΜ", "value": 58.2}, {"measurement": "cell viability, 501Mel GP, 10μΜ", "setting": "[4]; 10μΜ, 72 h", "value": 57.3}, {"measurement": "cell viability, IGR37 Parental, 10μΜ", "setting": "IGR37 cells (parental); 10μΜ, 72 h", "value": 46.6}, {"measurement": "cell viability, 501Mel XP, 1μΜ", "setting": "[5]; 1μΜ, 72 h", "value": 93.2}, {"measurement": "cell viability, 501Mel XP, 10μΜ", "setting": "[5]; 10μΜ, 72 h", "value": 14.1}, {"measurement": "cell viability, 501Mel Parental, 10μΜ", "setting": "501Mel cells (parental); 10μΜ, 72 h", "value": 11.5}, {"measurement": "cell viability, IGR37 GP, 1μΜ", "setting": "[6]; 1μΜ, 72 h", "value": 93.7}, {"measurement": "cell viability, IGR37 GP, 10μΜ", "setting": "[6]; 10μΜ, 72 h", "value": 19.5}]}]}
